Experimental data taken from paper PMC12027946, “Ionic and Non-Ionic Counterparts Based on Bis(Uracilyl)Alkane Moiety with Highest Selectivity Towards Acetylcholinesterase for Protection Against Organophosphate Poisoning and Treating Alzheimer’s Disease” (International Journal of Molecular Sciences, 2025).
Values joined by “and” are separate entries in the source; they are usually repeats but may differ in a detail not shown here. Identical values can stand only once. Like-named read-outs stand apart in the source and are kept apart here.

Assays:
mice [1] = assay: Open-field test; type: in vivo; conditions: 2b 0.01 mg/kg, 3c 5 mg/kg, i.p.
Description: (§1) The ability of effective doses of bisuracil 2b (0.01 mg/kg) and bisuracil 3c (5 mg/kg) to induce incapacitation was evaluated. Locomotor activity, measured as the total distance travelled, and exploratory behaviour, assessed by the number of rearings (head inclinations) and head dips, were evaluated using the open-field test. Additionally, motor coordination was analysed using the rotarod test, where the ability of mice to stay on the rotating rod was recorded. The compounds were administered i.p. 30 min before testing, while the control group received an equivalent volume of the vehicle.
(§2) To analyse motor function, rotarod and open-field tests were carried out. Mice were randomly divided into 3 groups (n = 12): a control group of mice and groups of mice treated with tested compounds. Tests were conducted 1 h after compound exposure. To assess motor function, mice were first placed on a rotarod treadmill (Ugo Basile, Italy). Rotation speed was fixed at 15 rpm, and the time that each mouse remained on the rod was recorded as the score, with a maximum duration of 300 s per trial. Each mouse underwent 3 trials. After recording the length of time that mice managed to remain on the rotarod (latency to fall), the average of three trials was used for further analysis. Following the rotarod test, motor function was studied in an open field apparatus (Open Science, Krasnogorsk, Russia), as described in [39]. The numbers of rearing and head dips were estimated as indexes of exploratory activity. To assess motor function, the distance travelled in centimetres in the arena was measured, using VideoMot2 software (Version 8.02 (131) 03-07-17 (TSE Systems, Bad Homburg, Germany).

[2] = system: mice poisoned with 2×LD50 of POX; assay: Protection against POX toxicity (pre-treatment); type: in vivo; conditions: for n/N (mice surviving 5 days after POX poisoning / total): atropine 15 mg/kg i.p. 1 min after POX
Description: The concept of using reversible AChE inhibition as a preventive strategy to enhance the efficacy of traditional antidotes in OP poisoning is a well-established principle. This study explores the potential of bisuracil 2b as a preventive agent to protect AChE from irreversible inhibition caused by paraoxon (POX), a model OP. […] Following POX administration, the standard antidote atropine was given at a dose of 15 mg/kg within one minute. […] Increasing the dose of bisuracil 2b reduced the protective effect in POX poisoned animals (Table 3).
We also estimated the relative risk of death (RRD) as a function of precocity (from min to hours) over a period of 10 h by Cox survival analysis. Statistical differences in the number of surviving animals between experimental groups were tested using the Cox–Mantel multisample logarithmic rank criterion. It was shown that, in mice exposed to 0.42 mg/kg of POX, RRD = 1 (Figure 5). However, in animals that received atropine within 1 min after poisoning, POX-induced mortality was lower (RRD = 0.5; Figure 5).
The tested compound was administered via i.p. before POX injection.

mice [3] = assay: Rotarod test; type: in vivo; conditions: 2b 0.01 mg/kg i.p.; control 173 ± 21 s, p = 0.125
Description: as §1
as §2, with “After recording the length of time that mice managed to remain on the rotarod (latency to fall), the average of three trials was used for further analysis. Following the rotarod test, motor function was studied in an open field apparatus (Open Science, Krasnogorsk, Russia), as described in [39]. The numbers of rearing and head dips were estimated as indexes of exploratory activity.” left out

BChE from human plasma = molecular target: T1, BChE from human plasma (Homo sapiens, UniProt P06276); assay: In vitro cholinesterase inhibition (Ellman), BuChE; type: biochemical
T1 construct: butyrylcholiesterase from human plasma; purchased Sigma-Aldrich; host or cells: human plasma
Description: (§3) Inhibitory activities of the tested compounds against AChE and BChE were measured according to Ellman et al.. Enzyme-catalysed hydrolysis of ATCHh was carried out at 25 °C in 0.1 M phosphate buffer (pH 8.0) containing 0.25 U AChE, 1 mM ATCHh as substrates, and 0.1 mM of DTNB. In experiments with BuChE, 0.1 M phosphate buffer (pH 7.0) and BuTChh as a substrate were used. The tested compounds were pre-incubated with the enzyme for two minutes prior to the addition of the substrate and the subsequent recording of hydrolysis kinetics. […] A sample without an inhibitor was used as a control (100% cholinesterase activity). A sample without a substrate was used as a blank. Experiments were performed in triplicate.

human AChE [4] = molecular target: T2, human AChE (Homo sapiens, UniProt P22303); assay: Inhibition constants (Dixon and Cornish–Bowden plots), AChE; type: biochemical
T2 construct: purchased Sigma-Aldrich
Description: (§4) Experiments were performed using four different concentrations of ATCh as a substrate for AChE, and with BuTCh as a substrate for BuChE. According to the analysis of Dixon and Cornish–Bowden plots for bisuracil 2b, AChE and BuChE inhibition is of a mixed type characterised both by competitive inhibition (Kci) and uncompetitive inhibition (Kui) components. For AChE, Kci was determined to be 55.7 ± 8.1 pM while Kui = 156 ± 18 pM (Figure 3A,B), and Kci = 0.13 ± 0.02 mM while Kui = 0.7 ± 0.06 mM for BuChE (Figure 3C,D). Inhibition of AChE and BuChE by bisuracil 3c was of a mixed type. For the AChE constant, Kci was 0.7 ± 0.04 nM while Kui 4.45 ± 1.76 nM (Figure 4A,B); for the BuChE constant, Kci = 0.04 ± 0.007 мM while Kui = 0.68 ± 0.08 мM (Figure 4C,D).
(§5) A UV-1800 Shimadzu (Shimadzu Co., Kyoto, Japan) spectrophotometer was utilised to conduct the measurements. The final enzyme concentration in the assays was in the picomolar range. In order to ascertain the levels of spontaneous hydrolysis of the enzyme and substrate in the absence of an inhibitor, controls were performed for each substrate concentration. The change in absorption was then recorded over a period of three minutes. The inhibition constants were determined from a Dixon plot and Cornish–Bowden transformation.

[5] = Acute toxicity, single i.p. injection; conditions: CD-1, mouse, in vivo, ip, mice
Description: Toxicological experiments were performed using a single i.p. injection of the tested compounds in CD-1 mice weighing 20–25 g. Stock solutions of the tested compounds were diluted in ethanol or water. The final ethanol dose was 100 mg/kg. Nine different doses of the tested compounds were used with 12 mice per dose. Animals were observed 7 days after injection, and symptoms of toxicity were recorded.

human AChE [6] = molecular target: T2, human AChE; assay: In vitro cholinesterase inhibition (Ellman), AChE; type: biochemical
Description: as §3

human BuChE = molecular target: T3, human BuChE (Homo sapiens, UniProt P06276); assay: Inhibition constants (Dixon and Cornish–Bowden plots), BuChE; type: biochemical
T3 construct: butyrylcholiesterase from human plasma; purchased Sigma-Aldrich; host or cells: human plasma
Description: as §4, §5

T3 sequence (P06276 29-602): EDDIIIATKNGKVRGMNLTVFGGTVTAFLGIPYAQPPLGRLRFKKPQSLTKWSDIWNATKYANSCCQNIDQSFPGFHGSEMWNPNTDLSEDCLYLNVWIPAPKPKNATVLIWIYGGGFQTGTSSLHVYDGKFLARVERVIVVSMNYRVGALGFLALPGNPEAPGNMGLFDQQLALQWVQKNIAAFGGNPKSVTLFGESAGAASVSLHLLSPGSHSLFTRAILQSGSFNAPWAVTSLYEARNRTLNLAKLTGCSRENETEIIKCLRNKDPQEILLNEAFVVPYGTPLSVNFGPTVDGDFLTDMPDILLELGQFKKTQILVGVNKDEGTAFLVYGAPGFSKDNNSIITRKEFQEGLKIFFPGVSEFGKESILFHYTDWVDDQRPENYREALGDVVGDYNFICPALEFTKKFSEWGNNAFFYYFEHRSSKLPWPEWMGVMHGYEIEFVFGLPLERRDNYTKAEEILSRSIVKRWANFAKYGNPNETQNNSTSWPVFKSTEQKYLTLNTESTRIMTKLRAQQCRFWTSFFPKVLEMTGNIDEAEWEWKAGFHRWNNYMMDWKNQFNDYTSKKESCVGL
T2 sequence (P22303 32-614): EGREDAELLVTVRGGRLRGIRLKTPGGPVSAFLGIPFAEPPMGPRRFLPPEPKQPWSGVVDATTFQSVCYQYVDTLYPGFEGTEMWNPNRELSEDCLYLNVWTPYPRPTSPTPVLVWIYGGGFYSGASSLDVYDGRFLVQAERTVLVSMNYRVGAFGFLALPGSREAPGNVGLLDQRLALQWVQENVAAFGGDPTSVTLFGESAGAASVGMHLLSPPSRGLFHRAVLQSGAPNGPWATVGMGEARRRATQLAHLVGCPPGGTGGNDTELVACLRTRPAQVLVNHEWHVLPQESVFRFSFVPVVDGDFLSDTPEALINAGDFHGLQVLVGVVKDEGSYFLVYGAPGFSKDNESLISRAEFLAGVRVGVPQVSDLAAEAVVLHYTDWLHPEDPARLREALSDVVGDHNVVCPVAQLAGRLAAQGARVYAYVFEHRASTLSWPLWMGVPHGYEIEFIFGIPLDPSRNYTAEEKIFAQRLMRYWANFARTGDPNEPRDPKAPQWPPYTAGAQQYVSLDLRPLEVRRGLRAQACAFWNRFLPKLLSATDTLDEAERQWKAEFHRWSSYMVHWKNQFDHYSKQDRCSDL
T1 sequence (P06276 29-602): as the sequence (P06276 29-602) above

CC[N+](CC)(CCCCCn1c(=O)ccn(CCCCn2c(C)cc(=O)n(C)c2=O)c1=O)Cc1ccccc1C#N [2b, 1,4-{(3,6-Dimethyluracil-1-yl)-[3-(5-o-nitrilebenzyl(diethyl)ammonio)pentyl)-uracil-1-yl]}butane bromide]
distance travelled (open field) vs control group (mice [1]): no significant differences
number of rearings or head dips (open field) (mice [1]): neither of the tested compounds significantly influenced
n/N (mice surviving 5 days after POX poisoning / total) ([2]; 2b 0.005 mg/kg i.p. 30 min before POX 0.42 mg/kg i.p.): 8/12
n/N (mice surviving 5 days after POX poisoning / total) ([2]; 2b 0.01 mg/kg i.p. 30 min before POX 0.42 mg/kg i.p.): 10 out of 12 and 10/12
relative risk of death (RRD) vs poisoned group treated only with atropine ([2]; 2b 0.01 mg/kg pre-treatment, p = 0.02): significantly decreased
n/N (mice surviving 5 days after POX poisoning / total) ([2]; 2b 0.05 mg/kg i.p. 30 min before POX 0.42 mg/kg i.p.): 7/12
n/N (mice surviving 5 days after POX poisoning / total) ([2]; 2b 0.1 mg/kg i.p. 30 min before POX 0.42 mg/kg i.p.): 5/12
n/N (mice surviving 5 days after POX poisoning / total) ([2]; 2b 0.5 mg/kg i.p. 30 min before POX 0.42 mg/kg i.p.): 4/12
n/N (mice surviving 5 days after POX poisoning / total) ([2]; 2b 1 mg/kg i.p. 30 min before POX 0.42 mg/kg i.p.): 4/12
relative risk of death (RRD) ([2]; 2b doses above 0.01 mg/kg): did not result in a reduction
mean fall time (rotarod) (mice [3]): 124 ± 20 s
IC50 (BChE from human plasma): 219000 ± 50000 nM
Ki (human AChE [4]): 0.0557 ± 0.0081 nM
Kui (uncompetitive inhibition constant), AChE (human AChE [4]; ATCh as substrate): 156 ± 18 pM
type of AChE inhibition (human AChE [4]; Dixon and Cornish–Bowden plots): mixed type
LD50 at 7 days ([5]; observed 7 days, read-out: LD50 (median lethal dose)): 5.16 mg/kg
LD50 at 7 days ([5]; read-out: LD50 95% confidence limits): 3.68 to 6.94 mg/kg
IC50 (human AChE [6]; AChE IC50, as printed in text and Figure 9): 0.0649 nM
IC50 (human AChE [6]; IC50 AChE, Table 1, recombinant human AChE, 25 °C, pH 8.0): 0.06 ± 0.003 nM
Ki (human BuChE): 130000 ± 20000 nM
Kui (uncompetitive inhibition constant), BuChE (human BuChE; BuTCh as substrate): 0.7 ± 0.06 mM
type of BuChE inhibition (human BuChE; Dixon and Cornish–Bowden plots): mixed type
